Measurements from US8658649B2, “Kinase inhibitor” (Sanofi, priority 2006, dated 2014).

Tested on: Collagen-induced arthritis (CIA)
Assay: Rat collagen induced arthritis, prophylactic dosing
Format: in vivo
Conditions: vs vehicle
Protocol: Immunization and Challenge: Female Lewis rats were immunized on day 0 and challenged on day 7 with cII from bovine nasal mixed with Freund's incomplete adjuvant at a final collagen concentration of 1.0 mg/ml. The animals were injected at the base of the tail with 400 μg of cII.
Prophylactic Dosing Regimen: The compound of Formula I (3.0, 10, and 30 mg/kg) was orally dosed (p.o.) twice daily (b.i.d.) starting on day 6 and continued through day 21.
Joint Pathology Ankle joint swelling was measured to the nearest 0.01 mm by using electronic digital calipers. Measurements were recorded 7 times throughout the study starting on day 6 and ending on day 21. Body weights were recorded on the same days. On day 21, hind paws were removed at the hairline just above the ankle and fixed in 10% neutral buffered formalin.
MicroCT analysis: Ankle joints were examined using a cone-beam μCT scanner. A scout view scan was obtained first for selection of the examination volume of the specimens, followed by positioning, measurement and computational reconstruction. In ankle joints, the ratio of bone surface to bone volume, describing the complexity of bone surface in a certain volume, was analyzed.
Statistical Analysis For joint swelling/inflammation, data were analyzed using Everstat v.5 software and a 2-way repeated measure ANOVA with Dunnett's post test. MicroCT data were analyzed by Everstat using a 1-way ANOVA and Newman-Keuls multiple comparison test. Data are presented as the mean±SEM and p values of <0.05 are considered significant.

Q: Which results are given for `CCc1c(-c2ccc(C(C)(C)O)cc2)[nH]c2nccnc12` [compound of Formula I, 2-[4-(7-Ethyl-5H-pyrrolo[2,3-b]pyrazin-6-yl)-phenyl]-propan-2-ol]?
A: ankle swelling/inflammation (3.0 mg/kg p.o. b.i.d. day 6-21, on day 12 only): significantly reduced ankle swelling/inflammation; ankle swelling/inflammation (10 mg/kg p.o. b.i.d. day 6-21, on days 12 through 19): significantly reduced ankle swelling/inflammation; ankle swelling/inflammation (30 mg/kg p.o. b.i.d. day 6-21, from day 12 through day 21): significantly reduced ankle swelling/inflammation; bone erosion (ratio of bone surface to bone volume), MicroCT (3, 10 or 30 mg/kg b.i.d.): significant reductions in bone erosion
